This is an account of results in patent US20230416248A1, “COMPOUNDS AND USES THEREOF” (Foghorn Therapeutics Inc., priority 2020, published 2023).

For one experiment, the target named is T1, BRG-1 (Homo sapiens, UniProt P51532).
T1 construct: made in house; host or cells: High Five insect cells
The experiment is described as follows: ATPase catalytic activity of BRG-1, ADP-Glo in vitro biochemical assay. Particulars: ADP-Glo ATPase assay, 30 nM BRG-1, 400 μM ATP; read-out: BRG1 IC50. In a few lines: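 Luminescence read-out: ADP formed by BRG-1 ATPase is converted to ATP and detected by luciferase. Residual ATP is first removed with ADP-Glo Reagent for 40 min at RT; detection reagent is then incubated 60 min at RT before reading.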

The target of the next experiment is T2, BRM (Homo sapiens, UniProt P51531).
T2 construct: made in house; host or cells: High Five insect cells
Kind of experiment: ATPase catalytic activity of BRM, ADP-Glo in vitro biochemical assay. Particulars: for IC50: ADP-Glo ATPase assay, 30 nM BRM, 400 μM ATP; for Ratio* (BRG1 IC50 (μM) divided by BRM IC50 (μM)): selectivity ratio BRG1 IC50 / BRM IC50. The procedure, abridged: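 ADP-Glo luminescence, after depletion of leftover ATP and conversion of ADP, reported the activity. The 1 h room-temperature reaction held 400 μM ATP, 20 nM salmon sperm DNA and 30 nM BRM in 20 mM Tris pH 8, 20 mM MgCl2, 50 mM NaCl, 0.1% Tween-20, 1 mM DTT.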

T1 sequence (P51532 whole entry): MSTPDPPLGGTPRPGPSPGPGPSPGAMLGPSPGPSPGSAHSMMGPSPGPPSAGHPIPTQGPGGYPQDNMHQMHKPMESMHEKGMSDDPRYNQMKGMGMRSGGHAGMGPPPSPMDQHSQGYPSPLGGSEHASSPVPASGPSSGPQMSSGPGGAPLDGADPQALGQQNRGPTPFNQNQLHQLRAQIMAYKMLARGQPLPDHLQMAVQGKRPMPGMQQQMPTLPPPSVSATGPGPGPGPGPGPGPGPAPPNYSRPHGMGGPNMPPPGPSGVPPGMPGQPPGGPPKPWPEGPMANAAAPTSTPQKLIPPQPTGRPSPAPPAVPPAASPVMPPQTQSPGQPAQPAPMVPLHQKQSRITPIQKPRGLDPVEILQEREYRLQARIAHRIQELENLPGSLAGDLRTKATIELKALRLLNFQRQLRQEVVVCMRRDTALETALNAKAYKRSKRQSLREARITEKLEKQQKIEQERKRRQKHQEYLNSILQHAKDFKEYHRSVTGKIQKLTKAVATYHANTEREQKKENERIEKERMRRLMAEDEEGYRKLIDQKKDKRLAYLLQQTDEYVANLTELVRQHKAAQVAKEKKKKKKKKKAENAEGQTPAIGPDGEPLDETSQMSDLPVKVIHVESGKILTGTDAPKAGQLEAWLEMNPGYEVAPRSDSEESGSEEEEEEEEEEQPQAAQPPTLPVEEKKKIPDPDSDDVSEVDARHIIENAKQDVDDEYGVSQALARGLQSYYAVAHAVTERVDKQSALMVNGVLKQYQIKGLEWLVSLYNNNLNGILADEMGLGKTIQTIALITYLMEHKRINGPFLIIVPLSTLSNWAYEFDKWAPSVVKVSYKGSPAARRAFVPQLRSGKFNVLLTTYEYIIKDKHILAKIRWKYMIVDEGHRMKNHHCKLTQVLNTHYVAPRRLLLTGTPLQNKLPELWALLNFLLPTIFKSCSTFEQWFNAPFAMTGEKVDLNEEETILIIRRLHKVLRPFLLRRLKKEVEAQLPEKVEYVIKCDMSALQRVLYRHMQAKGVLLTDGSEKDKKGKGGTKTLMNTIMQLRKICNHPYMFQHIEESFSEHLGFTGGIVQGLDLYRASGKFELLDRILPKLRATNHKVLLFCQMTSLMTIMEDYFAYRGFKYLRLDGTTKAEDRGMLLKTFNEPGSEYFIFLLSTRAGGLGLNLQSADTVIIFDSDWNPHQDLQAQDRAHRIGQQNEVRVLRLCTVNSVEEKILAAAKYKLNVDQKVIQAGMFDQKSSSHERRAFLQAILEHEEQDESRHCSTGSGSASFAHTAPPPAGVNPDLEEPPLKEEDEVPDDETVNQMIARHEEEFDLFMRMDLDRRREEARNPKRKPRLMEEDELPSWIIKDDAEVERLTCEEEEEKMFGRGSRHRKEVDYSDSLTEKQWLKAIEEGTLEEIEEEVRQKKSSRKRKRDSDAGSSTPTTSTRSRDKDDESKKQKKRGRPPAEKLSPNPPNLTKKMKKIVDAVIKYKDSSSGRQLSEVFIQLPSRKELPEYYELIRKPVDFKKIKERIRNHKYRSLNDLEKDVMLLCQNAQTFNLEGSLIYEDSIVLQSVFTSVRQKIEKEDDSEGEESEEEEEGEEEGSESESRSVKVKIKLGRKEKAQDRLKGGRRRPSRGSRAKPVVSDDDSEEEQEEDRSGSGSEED
T2 sequence (P51531 whole entry): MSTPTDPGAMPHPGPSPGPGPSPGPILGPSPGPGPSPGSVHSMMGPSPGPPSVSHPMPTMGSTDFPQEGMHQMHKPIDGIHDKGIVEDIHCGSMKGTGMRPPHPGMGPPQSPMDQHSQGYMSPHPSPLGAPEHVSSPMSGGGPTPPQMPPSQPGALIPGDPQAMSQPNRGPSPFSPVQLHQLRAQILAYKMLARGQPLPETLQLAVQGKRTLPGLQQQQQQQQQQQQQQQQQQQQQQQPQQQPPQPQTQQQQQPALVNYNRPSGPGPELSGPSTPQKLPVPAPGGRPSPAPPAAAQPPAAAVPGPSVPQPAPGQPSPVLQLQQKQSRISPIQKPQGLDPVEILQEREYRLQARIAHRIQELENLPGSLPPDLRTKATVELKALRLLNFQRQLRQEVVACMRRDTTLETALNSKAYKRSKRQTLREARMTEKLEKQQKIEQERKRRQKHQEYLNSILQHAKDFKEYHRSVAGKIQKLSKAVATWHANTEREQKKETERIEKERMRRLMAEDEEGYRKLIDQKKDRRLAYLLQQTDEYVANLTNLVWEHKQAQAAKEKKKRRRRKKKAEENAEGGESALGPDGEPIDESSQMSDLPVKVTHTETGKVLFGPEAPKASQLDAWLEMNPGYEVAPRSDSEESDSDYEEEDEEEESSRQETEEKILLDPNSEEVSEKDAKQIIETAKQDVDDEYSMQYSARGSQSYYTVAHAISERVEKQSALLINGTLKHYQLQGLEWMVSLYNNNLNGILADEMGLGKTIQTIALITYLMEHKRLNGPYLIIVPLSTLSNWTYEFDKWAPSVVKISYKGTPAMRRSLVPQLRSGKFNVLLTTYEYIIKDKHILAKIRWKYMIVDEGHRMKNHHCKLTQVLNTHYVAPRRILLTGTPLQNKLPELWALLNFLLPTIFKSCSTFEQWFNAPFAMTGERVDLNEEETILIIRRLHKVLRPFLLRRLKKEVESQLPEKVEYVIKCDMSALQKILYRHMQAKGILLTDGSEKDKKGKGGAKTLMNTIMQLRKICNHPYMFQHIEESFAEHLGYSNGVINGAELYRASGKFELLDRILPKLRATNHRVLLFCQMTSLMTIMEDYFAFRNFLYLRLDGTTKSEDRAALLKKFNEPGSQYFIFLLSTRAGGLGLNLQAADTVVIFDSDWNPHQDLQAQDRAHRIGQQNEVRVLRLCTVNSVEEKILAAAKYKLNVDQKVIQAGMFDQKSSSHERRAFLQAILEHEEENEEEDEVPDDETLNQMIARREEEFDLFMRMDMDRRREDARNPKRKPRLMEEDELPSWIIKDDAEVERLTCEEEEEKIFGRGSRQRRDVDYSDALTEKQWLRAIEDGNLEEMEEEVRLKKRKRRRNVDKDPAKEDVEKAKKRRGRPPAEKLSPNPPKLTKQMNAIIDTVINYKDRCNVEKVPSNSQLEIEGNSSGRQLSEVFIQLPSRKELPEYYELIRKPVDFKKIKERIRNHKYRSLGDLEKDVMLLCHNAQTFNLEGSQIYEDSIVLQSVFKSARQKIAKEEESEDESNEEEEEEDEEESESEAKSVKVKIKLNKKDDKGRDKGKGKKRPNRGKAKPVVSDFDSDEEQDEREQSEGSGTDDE

With `CS(=O)(=O)c1cc(C(=O)NCc2cc3nc(-c4cncc(C5CC5)n4)ccc3cn2)cc(F)c1Cl` [Compound 272], the IC50 on BRG-1 is 4230 nM. Besides, on BRM, it took 245 nM to reach half-maximal inhibition (IC50) and the “Ratio* (BRG1 IC50 (μM) divided by BRM IC50 (μM))” value came to 17.28.
For the compound `COCc1ccc(C(=O)NCc2cc3nc(-c4cncc(C5CC5)n4)ccc3cn2)cc1S(C)(=O)=O` [Compound 273], the IC50 on BRG-1 stood at 2800 nM. At BRM, 119 nM corresponded to half-maximal inhibition (IC50) and the “Ratio* (BRG1 IC50 (μM) divided by BRM IC50 (μM))” value is given as 23.47.
On to `CNc1cccc(-c2ccc3cnc(CNC(=O)c4ccc5c(c4)S(=O)(=O)CCOC5)cc3n2)n1` [Compound 274], for which, at BRG-1, the IC50 was 589 nM. Besides, on BRM, the IC50 was found to be 69.6 nM and the “Ratio* (BRG1 IC50 (μM) divided by BRM IC50 (μM))” value is given as 8.46.
`CCS(=O)(=O)c1cc(C(=O)NCc2cc3nc(-c4cncc(C5CC5)n4)ccc3cn2)ccc1C` [Compound 275]: the concentration for half-maximal inhibition (IC50) at BRG-1 was determined as 1320 nM. Also, at BRM, the midpoint of inhibition, the IC50, lay at 84.9 nM and the “Ratio* (BRG1 IC50 (μM) divided by BRM IC50 (μM))” value amounted to 15.55.
On the same counts, the results for `O=C(NCc1cc2nc(-c3cccc(N4CC5CC(C4)O5)n3)ccc2cn1)c1ccc2c(c1)S(=O)(=O)CCOC2` [Compound 276] are 584 nM, 81.8 nM and 7.14.
The like results for `CS(=O)(=O)c1cc(C(=O)NCc2cc3nc(-c4cncc(C5CC5)n4)ccc3cn2)cnc1C(F)F` [Compound 277] were, in that order, 5360 nM, 615 nM and 8.72.
On the same counts, the results for `O=C(NCc1cc2nc(-c3cccc(OC(F)F)c3)ccc2cn1)c1ccc2c(c1)S(=O)(=O)CCOC2` [Compound 278] are 1910 nM, 73.8 nM and 25.91.
With `Cc1ccc(C(=O)NCc2cc3nc(-c4cncc(C5CC5)n4)ccc3cn2)cc1S(=O)(=O)C(C)C` [Compound 279], the IC50 on BRG-1 was determined as 5000 nM. Also, at BRM, half-maximal inhibition (IC50) required 529 nM and the “Ratio* (BRG1 IC50 (μM) divided by BRM IC50 (μM))” value is given as 9.45.
In the case of `CC(C)(F)c1cccc(-c2ccc3cnc(CNC(=O)c4ccc5c(c4)S(=O)(=O)CCOC5)cc3n2)n1` [Compound 280], the results for the IC50 at BRG-1 and at BRM were 2170 nM and 212 nM, respectively. The “Ratio* (BRG1 IC50 (μM) divided by BRM IC50 (μM))” value at BRM came out at 10.26.
The like results for `CC(F)(F)c1cccc(-c2ccc3cnc(CNC(=O)c4ccc5c(c4)S(=O)(=O)CCOC5)cc3n2)n1` [Compound 281] were, in that order, 1650 nM, 82.8 nM and 19.92.
On the same counts, the results for `C[C@@H]1CN(c2cccc(-c3ccc4cnc(CNC(=O)c5ccc6c(c5)S(=O)(=O)CCOC6)cc4n3)n2)C[C@H](C)O1` [Compound 282] are 19.3 nM, 4.2 nM and 4.64.
The like results for `Cc1ccc(C(=O)NCc2cc3nc(-c4cncc(C5CC5)n4)ccc3cn2)cc1S(=O)(=O)N(C)C` [Compound 283] were, in that order, 3480 nM, 197 nM and 17.67.
With `CN(C)c1cccc(-c2ccc3cnc(CNC(=O)c4cc(F)c5c(c4)S(=O)(=O)CCOC5)cc3n2)n1` [Compound 284], the IC50 at BRG-1 was determined as 178 nM. Also, at BRM, 12.1 nM corresponded to half-maximal inhibition (IC50) and the “Ratio* (BRG1 IC50 (μM) divided by BRM IC50 (μM))” value is 14.69.
The like results for `O=C(NCc1cc2nc(-c3cccc(OC(F)F)n3)ccc2cn1)c1ccc2c(c1)S(=O)(=O)CCOC2` [Compound 285] were, in that order, 497 nM, 19.3 nM and 25.69.
The like results for `N=S1(=O)CCOCc2ccc(C(=O)NCc3cc4nc(-c5cncc(C6CC6)n5)ccc4cn3)cc21` (stereo not drawn) [Compound 286] were, in that order, 4890 nM, 351 nM and 13.91.
On the same counts, the results for `O=C(NCc1cc2nc(-c3cncc(C4CC4)n3)ccc2cn1)c1cc(F)c2c(c1)S(=O)(=O)CCOC2` [Compound 287] are 594 nM, 24.2 nM and 24.53.
On to `CN(C)S(=O)(=O)c1cc(C(=O)NCc2cc3nc(-c4cncc(C5CC5)n4)ccc3cn2)ccc1Cl` [Compound 288], for which the IC50 at BRG-1 stood at 3460 nM; against BRM, 197 nM. Besides, the “Ratio* (BRG1 IC50 (μM) divided by BRM IC50 (μM))” value on BRM worked out at 17.58.
The like results for `CC(C)c1cccc(-c2ccc3cnc(CNC(=O)c4ccc5c(c4)S(=O)(=O)CCOC5)cc3n2)n1` [Compound 289] were, in that order, 958 nM, 59.8 nM and 16.01.
As for `O=C(NCc1cc2c(cn1)CCN(c1cncc(C3CC3)n1)C2)c1ccc2c(c1)S(=O)(=O)CCOC2` [Compound 290], the IC50 at BRG-1 came to 1240 nM. Moreover, on BRM, it took 172 nM to reach half-maximal inhibition (IC50) and the “Ratio* (BRG1 IC50 (μM) divided by BRM IC50 (μM))” value came to 7.19.
On the same counts, the results for `[2H]C([2H])([2H])N(c1cccc(-c2ccc3cnc(CNC(=O)c4ccc5c(c4)S(=O)(=O)CCOC5)cc3n2)n1)C([2H])([2H])[2H]` [Compound 291] are 97.2 nM, 10.3 nM and 9.47.
With `CS(=O)(=O)c1cc(C(=O)NCc2cc3nc(-c4cncc(C5CC5)n4)ccc3cn2)ccc1F` [Compound 292], the IC50 at BRG-1 came to 5000 nM. Moreover, on BRM, the half-inhibitory concentration (IC50) came out at 667 nM and the “Ratio* (BRG1 IC50 (μM) divided by BRM IC50 (μM))” value stood at 7.50.
On the same counts, the results for `O=C(NCc1cc2nc(-c3cncc(C4CC4)n3)ccc2cn1)c1ccc2c(c1)S(=O)(=O)NCCC2` [Compound 293] are 2410 nM, 223 nM and 10.84.
On the same counts, the results for `CS(=O)(=O)c1cc(C(=O)NCc2cc3nc(-c4cncc(C5CC5)n4)ccc3cn2)ccc1Cl` [Compound 294] are 2710 nM, 156 nM and 17.37.
On the same counts, the results for `CS(=O)(=O)c1cc(F)cc(C(=O)NCc2cc3nc(-c4cncc(C5CC5)n4)ccc3cn2)c1` [Compound 295] are 5000 nM, 385 nM and 12.98.
As for `CC(C)S(=O)(=O)c1cccc(C(=O)NCc2cc3nc(-c4cncc(C5CC5)n4)ccc3cn2)c1` [Compound 296], the IC50 on BRG-1 is 5000 nM. On BRM, the IC50 was 316 nM and the “Ratio* (BRG1 IC50 (μM) divided by BRM IC50 (μM))” value was 15.84.
The like results for `CN1CCCc2ccc(C(=O)NCc3cc4nc(-c5cncc(C6CC6)n5)ccc4cn3)cc2S1(=O)=O` [Compound 297] were, in that order, 2030 nM, 140 nM and 14.47.
On the same counts, the results for `Cc1ncc(C(=O)NCc2cc3nc(-c4cncc(C5CC5)n4)ccc3cn2)cc1S(C)(=O)=O` [Compound 298] are 2190 nM, 221 nM and 9.90.
`O=C(NCc1cc2nc(-c3cncc(C4CC4)n3)ccc2cn1)c1ccc2c(c1)[S+]([O-])CCOC2` (stereo not drawn) [Compound 299]: the IC50 at BRG-1 came to 6360 nM. Moreover, on BRM, inhibition was half-maximal at 869 nM (IC50) and the “Ratio* (BRG1 IC50 (μM) divided by BRM IC50 (μM))” value came to 7.32.
On the same counts, the results for `Cc1ccc(C(=O)NCc2cc3nc(-c4cncc(C5CC5)n4)ccc3cn2)cc1S(C)(=O)=O` [Compound 300] are 733 nM, 64.7 nM and 11.32.
The like results for `CN(C)S(=O)(=O)c1cccc(C(=O)NCc2cc3nc(-c4cncc(C5CC5)n4)ccc3cn2)c1` [Compound 301] were, in that order, 8880 nM, 858 nM and 10.34.
The like results for `O=C(NCc1cc2nc(-c3cncc(C4CC4)n3)ccc2cn1)c1ccc2c(c1)S(=O)(=O)CCCO2` [Compound 302] were, in that order, 2350 nM, 277 nM and 8.50.
Turning to `CN(C)c1cccc(-c2ccc3cnc(CNC(=O)c4ccc5c(c4)S(=O)(=O)CCOC5)cc3n2)n1` [Compound 303], at BRG-1, the IC50 came to 156 nM. Also, on BRM, the IC50 is 12.3 nM and the “Ratio* (BRG1 IC50 (μM) divided by BRM IC50 (μM))” value is given as 12.63.
For `O=C(NCc1cc2nc(-c3cccc(N4CCC4)n3)ccc2cn1)c1ccc2c(c1)S(=O)(=O)CCOC2` [Compound 304, N-[[2-[6-(azetidin-1-yl)-2-pyridyl]-1,6-naphthyridin-7-yl]methyl]-1,1-dioxo-3,5-dihydro-2H-4,1λ6-benzoxathiepine-8-carboxamide], the IC50 at BRG-1 stood at 136 nM. Also, at BRM, the IC50 stood at 9.4 nM and the “Ratio* (BRG1 IC50 (μM) divided by BRM IC50 (μM))” value amounted to 14.43.
As to `O=C(NCc1cc2nc(-c3cncc(C4CC4)n3)ccc2cn1)c1ccc2c(c1)S(=O)(=O)CCOC2` [Compound 305], the IC50 at BRG-1 is 279 nM; on BRM, 30 nM. Further, on BRM, the “Ratio* (BRG1 IC50 (μM) divided by BRM IC50 (μM))” value came out at 9.32.
The like results for `CS(=O)(=O)c1cncc(C(=O)NCc2cc3nc(-c4cncc(C5CC5)n4)ccc3cn2)c1` [Compound 306] were, in that order, 4250 nM, 855 nM and 4.98.
On the same counts, the results for `O=C(NCc1cc2nc(-c3cccc(N4CCCC(F)(F)C4)n3)ccc2cn1)c1ccc2c(c1)S(=O)(=O)CCOC2` [Compound 308] are 15.8 nM, 5.4 nM and 2.91.
